# Measurements from patent US20160331754A1, “THERAPIES FOR TREATING CANCERS” (GILEAD SCIENCES, INC., priority 2014, published 2016).
# Several values for one entry are separate records, joined by “and”; a condition that tells them apart may be missing. Equal values may be shown once.
# Key:
# WIL2-S = assay: ADCC LDH release assay, purified NK cells against WIL2-S target cells; assay type: cell-based, human; conditions: for Percentage of ADCC, 5 nM Compound B / Percentage of ADCC, 50 nM Compound B / Percentage of ADCC, 500 nM Compound B: antibody concentration 10 μg/mL; for Percentage of maximum ADCC, obinutuzumab: obinutuzumab 10 μg/mL; for Percentage of maximum ADCC, rituximab: rituximab 10 μg/mL
# p-AKT Ser473 = assay: Flow cytometry, TPO-activated AKT phosphorylation in CD34+ progenitor cells from MF patients; assay type: cell-based, human; conditions: for p-AKT (table title: percentage of Annexin-V positive cells): cells from Compound A-treated MF patients; for normalized percentage of TPO-activated AKT phosphorylation (p-AKT): TPO-treated vehicle=100
# Procedure: PBMCs were isolated from whole blood of myelofibrosis (MF) patients who had not received treatments (i.e. naïve patients) or received ruxolitinib (i.e. rux-treated patients). The cells were treated with 0.02, 0.2, or 2.0 μM of Compound B or vehicle (0.1% DMSO in 0.1% FBS/RPMI) for 2 hours at 37° C. The cells were then fixed, permeabilized, and stained for FACS analysis. Antibodies specific to p-AKT Ser473 and pS6RP Ser235/236 were used to detect AKT phosphorylation (p-AKT) and S6RP phosphorylation (p-S6RP) in CD34^+/CD3^−/CD14^−/CD19/CD66^− (BD Biosciences) gated cells using flow cytometry. The percentage of basal (i.e. untreated with TPO) AKT and S6RP phosphorylation were normalized to vehicle control. A two-tailed paired t-test (GraphPad Prism) was used to calculate p-values. Values of p<0.05 were considered significant.
# Also, PBMC cells from naïve or ruxolitinib treated patients were isolated and treated with Compound B and with TPO as described above. The percentage of TPO-activated AKT and S6RP phosphorylation were normalized to those of TPO-treated vehicle (“no TPO” values in Table 4). […] Also, the inhibition to PI3K signaling was dose-dependent to Compound B.
# Similar studies were conducted with PI3K inhibitors Compounds C and D. PBMC from MF patients had received ruxolitinib (rux) and MF patient had received Compound A. The cells were treated with Compounds C or D at 0, 20.0, 200.0, 2000.0 nM for 2 hours at 37° C. Cells were treated with TPO for 10 minutes. The percentage of basal p-AKT and p-S6RP levels were normalized to vehicle control and those of TPO-treated were normalized to TPO-treated vehicle control. The PI3Kδ inhibitors Compound C is referred by the chemical names of (S)-2-(1-((9H-purin-6-yl)amino)ethyl)-6-fluoro-3-phenylquinazolin-4(3H)-one.
# [1] = Compound B 0.98 nM, FcγRIIIa 158F/F
# [2] = Compound B 0.98 nM, FcγRIIIa 158F/V
# [3] = Compound B 0.98 nM, FcγRIIIa 158V/V
# [4] = Compound B 1.95 nM, FcγRIIIa 158F/F
# [5] = Compound B 1.95 nM, FcγRIIIa 158F/V
# [6] = Compound B 1.95 nM, FcγRIIIa 158V/V
# [7] = Compound B 3.91 nM, FcγRIIIa 158F/F
# [8] = Compound B 3.91 nM, FcγRIIIa 158F/V
# [9] = Compound B 3.91 nM, FcγRIIIa 158V/V
# [10] = Compound B 7.81 nM, FcγRIIIa 158F/F
# [11] = Compound B 7.81 nM, FcγRIIIa 158F/V
# [12] = Compound B 7.81 nM, FcγRIIIa 158V/V
# [13] = Compound B 15.63 nM, FcγRIIIa 158F/V
# [14] = Compound B 15.63 nM, FcγRIIIa 158V/V
# [15] = Compound B 31.25 nM, FcγRIIIa 158F/V
# [16] = Compound B 31.25 nM, FcγRIIIa 158V/V
# [17] = Compound B 62.5 nM, FcγRIIIa 158F/F
# [18] = Compound B 62.5 nM, FcγRIIIa 158F/V
# [19] = Compound B 62.5 nM, FcγRIIIa 158V/V
# [20] = Compound B 125 nM, FcγRIIIa 158F/F
# [21] = Compound B 125 nM, FcγRIIIa 158F/V
# [22] = Compound B 125 nM, FcγRIIIa 158V/V
# [23] = Compound B 250 nM, FcγRIIIa 158F/F
# [24] = Compound B 250 nM, FcγRIIIa 158F/V
# [25] = Compound B 250 nM, FcγRIIIa 158V/V
# [26] = Compound B 500 nM, FcγRIIIa 158F/F
# [27] = Compound B 500 nM, FcγRIIIa 158F/V
# [28] = Compound B 500 nM, FcγRIIIa 158V/V
# [29] = Compound B 1000 nM, FcγRIIIa 158F/F, n=2
# [30] = Compound B 1000 nM, FcγRIIIa 158F/V, n=2
structure (smiles),measurement,setting,value
"CC[C@H](Nc1ncnc2[nH]cnc12)c1nc2cccc(F)c2c(=O)n1-c1ccccc1 [Compound B, (S)-2-(1-((9H-purin-6-yl)amino)propyl)-5-fluoro-3-phenylquinazolin-4(3H)-one]","Percentage of ADCC, 5 nM Compound B",WIL2-S; E:T 3:1,58% and 56% and 53% and 49% and 46% and 44% and 39%
same,"Percentage of ADCC, 5 nM Compound B",WIL2-S; E:T 10:1,72% and 75% and 73% and 79% and 74%
same,"Percentage of ADCC, 5 nM Compound B",WIL2-S; E:T 30:1,81% and 82% and 79% and 76% and 80% and 77% and 85% and 84%
same,"Percentage of ADCC, 50 nM Compound B",WIL2-S; E:T 3:1,54% and 58% and 50% and 39% and 37% and 44% and 42%
same,"Percentage of ADCC, 50 nM Compound B",WIL2-S; E:T 10:1,72% and 74% and 69% and 77% and 76% and 73%
same,"Percentage of ADCC, 50 nM Compound B",WIL2-S; E:T 30:1,76% and 81% and 80% and 79% and 75% and 85% and 84%
same,"Percentage of ADCC, 500 nM Compound B",WIL2-S; E:T 3:1,50% and 53% and 36% and 34% and 39% and 35% and 38%
same,"Percentage of ADCC, 500 nM Compound B",WIL2-S; E:T 10:1,67% and 73% and 71% and 66% and 70%
same,"Percentage of ADCC, 500 nM Compound B",WIL2-S; E:T 30:1,76% and 79% and 77% and 72% and 75% and 81% and 82%
same,"Percentage of maximum ADCC, obinutuzumab",WIL2-S; [1],91% and 104%
same,"Percentage of maximum ADCC, obinutuzumab",WIL2-S; [2],103% and 104%
same,"Percentage of maximum ADCC, obinutuzumab",WIL2-S; [3],101% and 99%
same,"Percentage of maximum ADCC, rituximab",WIL2-S; [1],104% and 107%
same,"Percentage of maximum ADCC, rituximab",WIL2-S; [2],100% and 105%
same,"Percentage of maximum ADCC, rituximab",WIL2-S; [3],102% and 99%
same,"Percentage of maximum ADCC, obinutuzumab",WIL2-S; [4],89% and 106%
same,"Percentage of maximum ADCC, obinutuzumab",WIL2-S; [5],104% and 112%
same,"Percentage of maximum ADCC, obinutuzumab",WIL2-S; [6],107% and 100%
same,"Percentage of maximum ADCC, rituximab",WIL2-S; [4],103% and 111%
same,"Percentage of maximum ADCC, rituximab",WIL2-S; [5],105% and 111%
same,"Percentage of maximum ADCC, rituximab",WIL2-S; [6],105% and 104%
same,"Percentage of maximum ADCC, obinutuzumab",WIL2-S; [7],84% and 108%
same,"Percentage of maximum ADCC, obinutuzumab",WIL2-S; [8],105% and 110%
same,"Percentage of maximum ADCC, obinutuzumab",WIL2-S; [9],103% and 91%
same,"Percentage of maximum ADCC, rituximab",WIL2-S; [7],97% and 109%
same,"Percentage of maximum ADCC, rituximab",WIL2-S; [8],102% and 110%
same,"Percentage of maximum ADCC, rituximab",WIL2-S; [9],102% and 105%
same,"Percentage of maximum ADCC, obinutuzumab",WIL2-S; [10],89% and 107%
same,"Percentage of maximum ADCC, obinutuzumab",WIL2-S; [11],109% and 107%
same,"Percentage of maximum ADCC, obinutuzumab",WIL2-S; [12],94% and 90%
same,"Percentage of maximum ADCC, rituximab",WIL2-S; [10],91% and 108%
same,"Percentage of maximum ADCC, rituximab",WIL2-S; [11],104% and 110%
same,"Percentage of maximum ADCC, rituximab",WIL2-S; [12],100%
same,"Percentage of maximum ADCC, obinutuzumab","WIL2-S; Compound B 15.63 nM, FcγRIIIa 158F/F",80% and 108%
same,"Percentage of maximum ADCC, obinutuzumab",WIL2-S; [13],106% and 109%
same,"Percentage of maximum ADCC, obinutuzumab",WIL2-S; [14],93% and 90%
same,"Percentage of maximum ADCC, rituximab",WIL2-S; [13],100% and 108%
same,"Percentage of maximum ADCC, rituximab",WIL2-S; [14],98% and 101%
same,"Percentage of maximum ADCC, obinutuzumab","WIL2-S; Compound B 31.25 nM, FcγRIIIa 158F/F",85% and 107%
same,"Percentage of maximum ADCC, obinutuzumab",WIL2-S; [15],107%
same,"Percentage of maximum ADCC, obinutuzumab",WIL2-S; [16],95% and 82%
same,"Percentage of maximum ADCC, rituximab",WIL2-S; [15],100% and 104%
same,"Percentage of maximum ADCC, rituximab",WIL2-S; [16],94%
same,"Percentage of maximum ADCC, obinutuzumab",WIL2-S; [17],88% and 108%
same,"Percentage of maximum ADCC, obinutuzumab",WIL2-S; [18],112% and 103%
same,"Percentage of maximum ADCC, obinutuzumab",WIL2-S; [19],98% and 78%
same,"Percentage of maximum ADCC, rituximab",WIL2-S; [17],88% and 108%
same,"Percentage of maximum ADCC, rituximab",WIL2-S; [18],101% and 107%
same,"Percentage of maximum ADCC, rituximab",WIL2-S; [19],96% and 99%
same,"Percentage of maximum ADCC, obinutuzumab",WIL2-S; [20],87% and 110%
same,"Percentage of maximum ADCC, obinutuzumab",WIL2-S; [21],111% and 105%
same,"Percentage of maximum ADCC, obinutuzumab",WIL2-S; [22],94% and 84%
same,"Percentage of maximum ADCC, rituximab",WIL2-S; [20],87% and 108%
same,"Percentage of maximum ADCC, rituximab",WIL2-S; [21],105% and 102%
same,"Percentage of maximum ADCC, rituximab",WIL2-S; [22],95% and 98%
same,"Percentage of maximum ADCC, obinutuzumab",WIL2-S; [23],91% and 109%
same,"Percentage of maximum ADCC, obinutuzumab",WIL2-S; [24],106% and 102%
same,"Percentage of maximum ADCC, obinutuzumab",WIL2-S; [25],99% and 89%
same,"Percentage of maximum ADCC, rituximab",WIL2-S; [23],87% and 109%
same,"Percentage of maximum ADCC, rituximab",WIL2-S; [24],98% and 101%
same,"Percentage of maximum ADCC, rituximab",WIL2-S; [25],95% and 94%
same,"Percentage of maximum ADCC, obinutuzumab",WIL2-S; [26],83% and 104%
same,"Percentage of maximum ADCC, obinutuzumab",WIL2-S; [27],106% and 94%
same,"Percentage of maximum ADCC, obinutuzumab",WIL2-S; [28],92% and 79%
same,"Percentage of maximum ADCC, rituximab",WIL2-S; [26],84% and 105%
same,"Percentage of maximum ADCC, rituximab",WIL2-S; [27],95% and 99%
same,"Percentage of maximum ADCC, rituximab",WIL2-S; [28],91% and 96%
same,"Percentage of maximum ADCC, obinutuzumab",WIL2-S; [29],79% and 103%
same,"Percentage of maximum ADCC, obinutuzumab",WIL2-S; [30],105% and 93%
same,"Percentage of maximum ADCC, rituximab",WIL2-S; [29],80% and 100%
same,"Percentage of maximum ADCC, rituximab",WIL2-S; [30],95% and 88%
same,"Percentage of maximum ADCC, rituximab","WIL2-S; Compound B 1000 nM, FcγRIIIa 158V/V, n=2",87% and 84%
same,effect on obinutuzumab-mediated ADCC,"WIL2-S; WIL2-S, E:T=10:1, 4 h, n=9",did not affect
same,effect on NK-mediated ADCC,"WIL2-S; varying E:T ratios, antibody 10 μg/mL, n=3",did not affect
same,p-AKT (table title: percentage of Annexin-V positive cells),"p-AKT Ser473; 0.02 μM, column 0 = 100",56% and 74% and 51%
same,normalized percentage of TPO-activated AKT phosphorylation (p-AKT),"p-AKT Ser473; 0.02 μM, naïve MF patients, one line per patient",43% and 60% and 58%
same,normalized percentage of TPO-activated AKT phosphorylation (p-AKT),"p-AKT Ser473; 0.02 μM, rux-treated MF patients",59% and 60% and 78% and 55% and 57%
same,p-AKT (table title: percentage of Annexin-V positive cells),p-AKT Ser473; 0.2 μM,49% and 71% and 51%
same,normalized percentage of TPO-activated AKT phosphorylation (p-AKT),"p-AKT Ser473; 0.2 μM, naïve MF patients",30% and 32% and 41%
same,normalized percentage of TPO-activated AKT phosphorylation (p-AKT),"p-AKT Ser473; 0.2 μM, rux-treated MF patients",39% and 52% and 55% and 57% and 36% and 33%
same,normalized percentage of TPO-activated AKT phosphorylation (p-AKT),"p-AKT Ser473; 2.0 μM, naïve MF patients",28% and 32% and 27%
